In one test the target is T1, MAPK2(h) (Homo sapiens, UniProt P28482).
T1 construct: purchased Millipore (KinaseProfiler service)
The experiment in a line: Kinase screen. Conditions: 0.1% DMSO control = 100%. The test is classed as biochemical.

In test [1] the test system is Wnt signaling pathway in SW480 cells. The experiment in a line: ST-d1EGFP reporter in SW480 cells (flow cytometry). Conditions: 25 µM compound, 72 h. In kind it is cell-based. Here is the method:
3) the SW480 colorectal cell line, which has an aberrant Wnt activity caused by spontaneous mutations in the APC locus, transfected with the construct ST-d1EGFP. In this cell line, d1EGFP reporter is activated without using Wnt-3a CM, i.e. the cell line has permanently “switched on” Wnt signaling pathway.
100000 ST-d1EGFP SW480 and SW480 CMV-d1EGFP (Clontech) SW480 cells were plated on 12-well plates and 1, 10 or 25 μM of compound No. 1 (or 0.01%, 0.1% or 0.25% DMSO—controls) was added to the cells the following day. After a 72 hour incubation, samples were trypsinized and analysed for d1EGFP expression on a PAS-PPCS flowcytometer and cell sorter (Partec).

In another test the target is T2, cSRC(h) (Homo sapiens, UniProt P12931).
T2 construct: purchased Millipore (KinaseProfiler service)
Description: Kinase screen. In kind it is biochemical. The following applies: 0.1% DMSO control = 100%.

In a further test the target is T3, CDK2/cyclinA(h) (Homo sapiens, UniProt P24941).
T3 construct: purchased Millipore (KinaseProfiler service)
The experiment in a line: Kinase screen. The following applies: 0.1% DMSO control = 100%. In kind it is biochemical.

Test [2] has as its system LiCl-induced activation of canonical Wnt signaling. The experiment in a line: LiCl-induced ST-Luc reporter assay in HEK293 cells. The test is classed as cell-based. The following applies: Homo sapiens; HEK293, 25 mM LiCl, 24 h; read-out: IC50, antagonism of LiCl-induced activation of canonical Wnt signaling.
Description: Transfection of HEK293 cells was performed as described in Example 22, but using 0.23 μg NF-κB-Luciferase and 0.02 μg Renilla. […] All treated reporter cells were finally lysed and the firefly luciferase and Renilla activities were measured on a 20/20n Luminometer (Turner BioSystems) as described in the Dual-Glo™ Luciferase Assay System Technical Manual (Promega).
A further test has as its system DLD-1 cells. The experiment in a line: Real-time RT-PCR of Wnt target genes. The test is classed as cell-based. The following applies: 10 (or 25) M as printed, 72 h, relative to GAPDH. Here is the method: (§1) A real-time RT-PCR analysis was employed to confirm specific inhibition of expressed Wnt target genes. […] After 24 hours, solutions containing compound No. 1 were added at 10 or 25 μm final concentrations. Media containing the test compound were changed daily for 3 days. […] Real Time RT-PCR (SYBR Green PCR Mastermix, Stratagene) was performed using the following primers on a Mx3000P® QPCR System real-time thermal cycler (Stratagene): Results were calculated as the ratio of expression of target gene to a control gene (GAPDH).

The next test relates to SW480 cells. Description: Real-time RT-PCR of Wnt target genes. In kind it is cell-based. The following applies: 10 (or 25) M as printed, 72 h, relative to GAPDH. Here is the method:
as §1

The next test concerns the target T4, DUSP22(h) (Homo sapiens, UniProt Q9NRW4).
T4 construct: purchased Millipore (KinaseProfiler service)
Description: Phosphatase screen. The test is classed as biochemical. The following applies: 0.1% DMSO control = 100%.

For a further test, the target named is T5, EphB4(h) (Homo sapiens, UniProt P54760).
T5 construct: purchased Millipore (KinaseProfiler service)
The experiment in a line: Kinase screen. The test is classed as biochemical. The following applies: 0.1% DMSO control = 100%.

For another test, the target named is T6, Pim-1(h) (Homo sapiens, UniProt P11309).
T6 construct: purchased Millipore (KinaseProfiler service)
The experiment in a line: Kinase screen. The test is classed as biochemical. The following applies: 0.1% DMSO control = 100%.

The target of another test is T7, eEF-2K(h) (Homo sapiens, UniProt O00418).
T7 construct: purchased Millipore (KinaseProfiler service)
Description: Kinase screen. The test is classed as biochemical. Conditions: 0.1% DMSO control = 100%.

The next test addresses T8, TAK1(h) (Homo sapiens, UniProt O43318).
T8 construct: purchased Millipore (KinaseProfiler Service)
Description: Kinase screen. In kind it is biochemical. Conditions: 0.1% DMSO control = 100%.

Another test concerns Xenopus embryos. The experiment in a line: Xenopus laevis axis duplication assay (XWnt8 mRNA). In kind it is in vivo. Conditions: 0.4 pmol injected, scored after 36 h; compared to DMSO controls. Here is the method: Injection of ectopic XWnt8 mRNA into the prospective ventral side activates canonical Wnt pathway signaling and induces a secondary body axis. This assay provides a reliable method to test biological effects of compounds with potential effects on Wnt signaling. […] The embryos were incubated at 19° C. and axis duplication was scored after 36 hours.

In general, IC50 refers to the concentration needed to halve the response being measured.

T8 sequence (O43318 1-303 limits assumed): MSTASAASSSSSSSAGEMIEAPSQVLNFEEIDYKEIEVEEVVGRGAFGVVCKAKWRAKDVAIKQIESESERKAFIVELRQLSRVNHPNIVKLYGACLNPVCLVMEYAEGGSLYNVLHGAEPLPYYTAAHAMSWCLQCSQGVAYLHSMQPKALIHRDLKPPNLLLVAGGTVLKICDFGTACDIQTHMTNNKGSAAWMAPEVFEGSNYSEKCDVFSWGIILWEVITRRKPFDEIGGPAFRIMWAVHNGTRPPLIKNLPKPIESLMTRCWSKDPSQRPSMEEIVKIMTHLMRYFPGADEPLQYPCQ
T1 sequence (P28482 whole entry): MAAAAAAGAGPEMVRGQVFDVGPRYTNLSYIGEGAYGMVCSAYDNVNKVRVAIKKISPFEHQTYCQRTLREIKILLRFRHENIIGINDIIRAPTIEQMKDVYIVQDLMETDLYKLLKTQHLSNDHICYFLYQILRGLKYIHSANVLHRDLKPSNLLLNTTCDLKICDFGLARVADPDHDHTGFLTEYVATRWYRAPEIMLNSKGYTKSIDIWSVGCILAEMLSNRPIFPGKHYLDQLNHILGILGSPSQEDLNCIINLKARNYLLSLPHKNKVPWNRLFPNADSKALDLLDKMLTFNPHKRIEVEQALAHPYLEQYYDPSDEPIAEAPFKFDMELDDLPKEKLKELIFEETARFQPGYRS
T5 sequence (P54760 16-987): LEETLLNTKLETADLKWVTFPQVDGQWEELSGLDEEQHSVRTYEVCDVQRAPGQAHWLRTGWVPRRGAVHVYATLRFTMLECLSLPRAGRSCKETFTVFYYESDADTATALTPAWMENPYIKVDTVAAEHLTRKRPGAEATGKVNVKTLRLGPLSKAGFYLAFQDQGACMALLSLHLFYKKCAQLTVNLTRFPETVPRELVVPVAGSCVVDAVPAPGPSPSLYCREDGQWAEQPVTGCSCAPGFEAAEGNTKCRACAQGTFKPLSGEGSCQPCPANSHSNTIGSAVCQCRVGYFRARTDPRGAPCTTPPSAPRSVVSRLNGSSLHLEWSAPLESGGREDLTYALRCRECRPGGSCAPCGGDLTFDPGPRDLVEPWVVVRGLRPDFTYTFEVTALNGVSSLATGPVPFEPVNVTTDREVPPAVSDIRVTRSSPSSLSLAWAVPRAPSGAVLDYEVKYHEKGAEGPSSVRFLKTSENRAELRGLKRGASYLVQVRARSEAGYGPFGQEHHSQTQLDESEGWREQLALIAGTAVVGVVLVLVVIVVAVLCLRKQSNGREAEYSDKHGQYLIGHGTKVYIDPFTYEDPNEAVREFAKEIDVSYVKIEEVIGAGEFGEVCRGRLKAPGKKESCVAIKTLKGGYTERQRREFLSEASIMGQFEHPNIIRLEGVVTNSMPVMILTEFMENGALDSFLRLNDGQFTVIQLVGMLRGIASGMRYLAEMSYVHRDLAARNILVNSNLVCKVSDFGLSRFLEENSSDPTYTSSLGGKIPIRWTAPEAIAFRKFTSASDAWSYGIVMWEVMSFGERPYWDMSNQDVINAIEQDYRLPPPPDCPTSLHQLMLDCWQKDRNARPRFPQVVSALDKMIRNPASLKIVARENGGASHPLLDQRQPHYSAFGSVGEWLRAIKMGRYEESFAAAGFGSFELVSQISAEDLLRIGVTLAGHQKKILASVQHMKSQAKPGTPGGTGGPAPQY
T2 sequence (P12931 whole entry): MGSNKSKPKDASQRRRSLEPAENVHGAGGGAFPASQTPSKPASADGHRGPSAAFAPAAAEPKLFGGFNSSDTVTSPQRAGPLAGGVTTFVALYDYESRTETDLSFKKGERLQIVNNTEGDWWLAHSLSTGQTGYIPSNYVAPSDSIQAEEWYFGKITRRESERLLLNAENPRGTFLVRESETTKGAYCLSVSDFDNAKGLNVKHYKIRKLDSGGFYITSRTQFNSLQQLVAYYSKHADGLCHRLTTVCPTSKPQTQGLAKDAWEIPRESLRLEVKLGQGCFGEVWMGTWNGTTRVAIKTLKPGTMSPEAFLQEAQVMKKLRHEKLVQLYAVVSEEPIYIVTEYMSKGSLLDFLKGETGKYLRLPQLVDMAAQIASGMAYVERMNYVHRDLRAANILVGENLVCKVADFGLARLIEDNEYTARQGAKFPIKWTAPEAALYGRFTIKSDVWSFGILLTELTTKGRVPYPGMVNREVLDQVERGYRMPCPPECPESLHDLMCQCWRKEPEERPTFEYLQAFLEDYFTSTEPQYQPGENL
T4 sequence (Q9NRW4 whole entry): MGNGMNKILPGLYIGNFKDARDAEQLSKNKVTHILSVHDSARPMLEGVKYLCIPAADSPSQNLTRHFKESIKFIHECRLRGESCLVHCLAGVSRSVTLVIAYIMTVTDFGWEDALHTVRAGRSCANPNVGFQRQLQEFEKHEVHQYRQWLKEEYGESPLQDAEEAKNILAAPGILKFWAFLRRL
T6 sequence (P11309 whole entry): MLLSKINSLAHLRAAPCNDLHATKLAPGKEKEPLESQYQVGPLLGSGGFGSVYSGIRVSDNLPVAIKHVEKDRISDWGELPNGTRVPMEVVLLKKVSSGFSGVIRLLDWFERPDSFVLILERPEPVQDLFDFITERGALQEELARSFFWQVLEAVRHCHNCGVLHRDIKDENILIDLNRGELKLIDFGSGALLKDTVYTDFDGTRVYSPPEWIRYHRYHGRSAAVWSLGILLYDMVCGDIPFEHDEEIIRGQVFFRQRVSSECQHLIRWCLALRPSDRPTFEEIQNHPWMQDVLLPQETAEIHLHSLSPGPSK

Regarding `COc1ccc(-n2c(SCc3nc(-c4ccc(C)cc4)no3)nnc2-c2ccncc2)cc1` [Compound 1], the activity at 10 µM on MAPK2(h) was determined as 105%; on cSRC(h), 100%; on CDK2/cyclinA(h), 106%; on DUSP22(h) it was 101%; on EphB4(h) it was 105%; at Pim-1(h) it was 91%. For the same molecule, the values for the activity at 10 µM at eEF-2K(h) and on TAK1(h) were 117% and 104%, respectively. Moreover, the “reduction of ratio of activity of ST-d1EGFP to CMV-d1EGFP” value in test [1] is 63.5%. Moreover, the IC50 in test [2] is 420 nM. Also, the “Axin2, SP5 and NKD1 mRNA levels” value in the test with DLD-1 cells and in the test with SW480 cells was “dose dependent reduction” each time. Moreover, the “reduction in double axis formation” value in the test with Xenopus embryos amounted to 87%.

(Values after patent US8883827B2, “Azole derivatives as WTN pathway inhibitors” (Oslo University Hospital HF, priority 2009, dated 2014).)
